Assay results published in the supplement of paper PMC10307832.

Key:
Assay in all cases: relative viability (nuclei count vs DMSO), 5 days (fraction); higher = more cells survive
[1] = compound: N#CC[C@H](C1CCCC1)n1cc(-c2ncnc3[nH]ccc23)cn1 [Ruxolitinib] + CC(=O)c1c(C)c2cnc(Nc3ccc(N4CCNCC4)cn3)nc2n(C2CCCC2)c1=O [Palbociclib] (partner 0.5 µM)
Method in brief: (§1)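 Lung cancer cell lines, seeded in 1536-well plates, were treated the following day by pin tool with a single drug or with five library-drug doses (not always all listed) in √10 steps on top of a fixed anchor-drug dose. Cells were fixed and nuclei stained in one step after 5 days, and nuclei were counted. Relative viability is the nuclei count for treated wells divided by that for vehicle wells, reported as medians of duplicate plates.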

[2] = compound: CS(=O)(=O)c1ccc(C(=O)Nc2ccc(Cl)c(-c3ccccn3)c2)c(Cl)c1 [Vismodegib] + Cc1cc(Nc2cc(N3CCN(C)CC3)nc(Sc3ccc(NC(=O)C4CC4)cc3)n2)n[nH]1 [Tozasertib] (partner 0.1 µM)
Method in brief: as §1

[3] = compound: N#CC[C@H](C1CCCC1)n1cc(-c2ncnc3[nH]ccc23)cn1 [Ruxolitinib] + Nc1ncn([C@H]2C[C@H](O)[C@@H](CO)O2)c(=O)n1 [Decitabine] (partner 2 µM)
Method in brief: as §1

[4] = compound: N#CC[C@H](C1CCCC1)n1cc(-c2ncnc3[nH]ccc23)cn1 [Ruxolitinib] + Cc1nc(NC(=O)N2CCC[C@H]2C(N)=O)sc1-c1ccnc(C(C)(C)C(F)(F)F)c1 [Alpelisib] (partner 2 µM)
Method in brief: as §1

Row | Cell Line | relative viability ([1]; first compound 0.08 µM) | relative viability ([1]; first compound 0.253 µM) | relative viability ([1]; first compound 0.8 µM) | relative viability ([1]; first compound 2.53 µM) | relative viability ([1]; first compound 8 µM) | relative viability ([2]; first compound 0.08 µM) | relative viability ([2]; first compound 0.253 µM) | relative viability ([2]; first compound 0.8 µM) | relative viability ([2]; first compound 2.53 µM) | relative viability ([2]; first compound 8 µM) | relative viability ([3]; first compound 0.08 µM) | relative viability ([3]; first compound 0.253 µM) | relative viability ([3]; first compound 0.8 µM) | relative viability ([3]; first compound 2.53 µM) | relative viability ([3]; first compound 8 µM) | relative viability ([4]; first compound 0.08 µM) | relative viability ([4]; first compound 0.253 µM) | relative viability ([4]; first compound 0.8 µM) | relative viability ([4]; first compound 2.53 µM) | relative viability ([4]; first compound 8 µM)
1 | NCI-H1975 | 0.492 | 0.395 | 0.612 | 0.469 | 0.277 | 0.892 | 0.744 | 0.733 | 0.643 | 0.261 | 0.329 | 0.384 | 0.36 | 0.304 | 0.222 | 0.663 | 0.559 | 0.587 | 0.482 | 0.338
2 | NCI-H727 | 0.539 | 0.676 | 0.586 | 0.611 | 0.713 | 0.785 | 0.619 | 0.644 | 0.53 | 0.62 | 0.578 | 0.901 | 0.936 | 0.841 | 0.842 | 0.604 | 0.597 | 0.874 | 0.749 | 0.338
3 | NCI-H441 | 0.218 | 0.206 | 0.302 | 0.241 | 0.309 | 0.576 | 0.63 | 0.567 | 0.524 | 0.584 | 0.244 | 0.238 | 0.21 | 0.16 | 0.26 | 0.665 | 0.52 | 0.71 | 0.553 | 0.565
4 | NCI-H1944 | 0.33 | 0.321 | 0.375 | 0.31 | 0.318 | 0.261 | 0.285 | 0.26 | 0.269 | 0.232 | 0.445 | 0.394 | 0.467 | 0.393 | 0.409 | 0.777 | 0.689 | 0.863 | 0.782 | 0.753
5 | RERF-LC-KJ | 1.03 | 1.13 | 1.25 | 1.13 | 0.934 | 0.495 | 0.532 | 0.413 | 0.506 | 0.449 | 0.689 | 0.812 | 0.791 | 0.719 | 0.589 | 0.811 | 0.775 | 0.892 | 0.877 | 0.771
6 | NCI-H838 | 0.254 | 0.223 | 0.227 | 0.164 | 0.159 | 0.263 | 0.276 | 0.263 | 0.283 | 0.29 | 0.466 | 0.437 | 0.489 | 0.351 | 0.28 | 0.848 | 0.973 | 0.823 | 0.618 | 0.31
